Laboratory results: patent US20230271959A1, “HETEROCYCLIC COMPOUND AS BCL-2 INHIBITOR” (Beijing Innocare Pharma Tech Co., Ltd., priority 2020, published 2023)

Columns and labels:
[1] = test system: RS4;11 cells (acute lymphoblastic leukemia cells); assay: RS4;11 cell proliferation, CellTilter-Glo luminescence cell viability assay; format: cell-based; conditions: Homo sapiens, RS4-11; CTG readout after 48 hours
How it was run: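 RS4;11 cells plated overnight were exposed for 48 h at 37 °C, 5% CO2 to an 8-point, 4-fold compound dilution series; the vehicle control contained 0.2% DMSO. Viability was read by CellTiter-Glo luminescence. Percent inhibition was referenced to no-cell and DMSO controls, and IC50 came from a four-parameter sigmoidal fit.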

[2] = molecular target: T1, human recombinant Bcl-XL protein (Homo sapiens, UniProt Q07817); assay: Fluorescence polarization test for inhibition of BCL-XL binding to FITC-BIM; conditions: 10 nM BCL-XL, 10 nM FITC-BIM, read-out: FP BCL-XL IC50
T1 construct: purchased Beijing Yiqiao Shenzhou Biotechnology Co., Ltd. 10455-H0SE
How it was run: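 Human recombinant Bcl-XL (10 nM diluted stock) preincubated with compound 15 min at RT in PBS pH 7.4, 1 mM DTT, then FITC-BIM peptide (10 nM diluted stock) added for 30 min in dark. FP read at ex 480/em 535 nm; no-protein wells = 100% inhibition; IC50 from 8-point 4-fold dilution curve fit.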

[3] = molecular target: T2, human recombinant Bcl-2 protein (Homo sapiens, UniProt P10415); assay: Fluorescence polarization test for inhibition of BCL-2 binding to FITC-BIM; conditions: 5 nM BCL-2, 5 nM FITC-BIM, read-out: FP BCL-2 IC50
T2 construct: purchased Beijing Yigiao Shenzhou Biotechnology Co., Ltd. 10195-HOSE
How it was run: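 FP competition: compound preincubated 15 min with recombinant human Bcl-2 (diluted to 5 nM), then FITC-BIM (diluted to 5 nM) added for 30 min at room temperature in PBS pH 7.4 with 1 mM DTT. Polarization read at 480/535 nm; IC50 from 8-point 4-fold series fitted by four-parameter equation.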

T2 sequence (P10415 whole entry): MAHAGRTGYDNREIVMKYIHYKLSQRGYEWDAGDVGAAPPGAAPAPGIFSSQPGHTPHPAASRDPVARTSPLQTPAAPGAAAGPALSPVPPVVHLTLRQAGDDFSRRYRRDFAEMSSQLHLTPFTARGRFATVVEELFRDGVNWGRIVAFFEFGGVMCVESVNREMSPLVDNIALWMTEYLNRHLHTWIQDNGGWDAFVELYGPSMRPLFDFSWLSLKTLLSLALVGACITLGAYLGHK
T1 sequence (Q07817 whole entry): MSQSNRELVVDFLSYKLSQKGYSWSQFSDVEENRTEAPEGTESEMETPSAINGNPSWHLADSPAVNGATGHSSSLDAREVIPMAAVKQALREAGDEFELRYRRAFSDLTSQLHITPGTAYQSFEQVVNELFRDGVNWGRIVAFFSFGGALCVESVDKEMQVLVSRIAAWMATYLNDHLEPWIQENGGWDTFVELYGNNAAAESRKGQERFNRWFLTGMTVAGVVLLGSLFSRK

Compound | IC50 [1] [nM] | IC50 [2] [nM] | IC50 [3] [nM]
C[C@@H]1CN(c2ccc(C(=O)NS(=O)(=O)c3ccc(NCC4CCOCC4)c([N+](=O)[O-])c3)c(Oc3cnc4[nH]ccc4c3)c2)CCN1CC1=C(c2ccc(Cl)cc2)CCC(C)(C)C1 [Example 27, (R)-2-((1H-pyrrolo[2,3-b]pyridin-5-yl)oxy)-4-(4-((4′-chloro-4,4-dimethyl-3,4,5,6-tetrahydro-[1,1′-biphenyl]-2-yl)methyl)-3-methylpiperazin-1-yl)-N-((3-nitro-4--(((tetrahydro-2H-pyran-4-yl)methyl)amino)phenyl)sulfonyl)benzamide] | 16 | > 1000 | 5.12
C[C@@H]1CN(c2ccc(C(=O)NS(=O)(=O)c3cc(F)c(NCC4CCOCC4)c([N+](=O)[O-])c3)c(Oc3cnc4[nH]ccc4c3)c2)CCN1CC1=C(c2ccc(Cl)cc2)CCC(C)(C)C1 [Example 28, (R)-2-((1H-pyrrolo[2,3-b]pyridin-5-yl)oxy)-4-(4-((4′-chloro-4,4-dimethyl-3,4,5,6-tetrahydro-[1,1′-biphenyl]-2-yl)methyl)-3-methylpiperazin-1-yl)-N-((3-fluoro-5-nitro-4--(((tetrahydro-2H-pyran-4-yl)methyl)amino)phenyl)sulfonyl)benzamide] | 6.55 | > 1000 | 1.37
C[C@@H]1CN(c2ccc(C(=O)NS(=O)(=O)c3cc(F)c(NC[C@H]4COCCO4)c([N+](=O)[O-])c3)c(Oc3cnc4[nH]ccc4c3)c2)CCN1CC1=C(c2ccc(Cl)cc2)CCC(C)(C)C1 [Example 30, N-((4-((((S)-1,4-dioxan-2-yl)methyl)amino)-3-fluoro-5-nitrophenyl)sulfonyl)-2-((1H-pyrrolo[2,3-b]pyridin-5-yl)oxy)-4-((R)-4-((4′-chloro-4,4-dimethyl-3,4,5,6-tetrahydro-[1,1′-biphenyl]-2-yl)methyl)-3-methylpiperazin-1-yl)benzamide] | 2.3 | 831 | 0.84
C[C@@H]1CN(c2ccc(C(=O)NS(=O)(=O)c3ccc(NCC4CCOCC4)c([N+](=O)[O-])c3)c(Oc3cnc4[nH]ccc4c3)c2)CCN1CC1=C(c2ccc(Cl)cc2)CC(C)(C)C2(CC2)C1 [Example 31, (R)-2-((1H-Pyrrolo[2,3-b]pyridin-5-yl)oxy)-4-(4-((6-(4-chlorophenyl)-8,8-dimethylspiro[2.5]oct-5-en-5-yl)methyl)-3-methylpiperazin-1-yl)-N-((3-nitro-4-(((tetrahydro-2H-pyran-4-yl)methyl)amino)phenyl)sulfonyl)benzamide] | 8.1 | > 1000 | 3.57
C[C@@H]1CN(c2ccc(C(=O)NS(=O)(=O)c3cc(F)c(NC[C@H]4COCCO4)c([N+](=O)[O-])c3)c(Oc3cnc4[nH]ccc4c3)c2)CCN1CC1=C(c2ccc(Cl)cc2)CC(C)(C)C2(CC2)C1 [Example 32, N-((4-((((S)-1,4-dioxan-2-yl)methyl)amino)-3-fluoro-5-nitrophenyl)-sulfonyl)-2-((1H-pyrrolo [2,3-b]pyridin-5-yl)oxy)-4-((R)-4-((6-(4-chlorophenyl)-8,8-dimethylspiro[2.5]oct-5-en-5-yl)methyl)-3-methylpiperazin-1-yl) benzamide] | 6.6 | > 1000 | 1.8
C[C@@H]1CN(c2ccc(C(=O)NS(=O)(=O)c3ccc(NC[C@H]4COCCO4)c([N+](=O)[O-])c3)c(Oc3cnc4[nH]ccc4c3)c2)CCN1CC1=C(c2ccc(Cl)cc2)CC(C)(C)C2(CC2)C1 [Example 34, N-((4-((((S)-1,4-dioxan-2-yl)methyl)amino)-3-nitrophenyl)sulfonyl)-2-((1H-pyrrolo[2,3-b]pyridin-5-yl)oxy)-4-((R)-4-((6-(4-chlorophenyl)-8,8-dimethylspiro[2.5]oct-5-en-5-yl)methyl)-3-methylpiperazin-1-yl) benzamide] | 6.6 | > 1000 | 3.33
C[C@@H]1CN(c2ccc(C(=O)NS(=O)(=O)c3cc(F)c(NC[C@H]4COCCO4)c([N+](=O)[O-])c3)c(Oc3cnc4[nH]ccc4c3)c2)CCN1CC1=C(c2ccc(Cl)cc2)CCC2(CC2)C1 [Example 35, N-((4-((((S)-1,4-dioxan-2-yl)methyl)amino)-3-fluoro-5-nitrophenyl)sulfonyl)-2-((1H-pyrrolo[2,3-b]pyridin-5-yl)oxy)-4-((R)-4-((6-(4-chlorophenyl)spiro[2.5]oct-5-en-5-yl)methyl)-3-methylpiperazin-1-yl)benzamide] | 17 | > 1000 | 2.96
C[C@@H]1CN(c2ccc(C(=O)NS(=O)(=O)c3ccc(NC[C@H]4COCCO4)c([N+](=O)[O-])c3)c(Oc3cnc4[nH]ccc4c3)c2)CCN1CC1=C(c2ccc(Cl)cc2)CCC2(CC2)C1 [Example 36] | 21 | > 1000 | 4.78
C[C@@H]1CN(c2ccc(C(=O)NS(=O)(=O)c3ccc(NCC4CCOCC4)c([N+](=O)[O-])c3)c(Oc3cnc4[nH]ccc4c3)c2)CCN1CC1=C(c2ccc(Cl)cc2)CCC2(CC2)C1 [Example 38] | 32 | > 1000 | 5.24
C[C@@H]1CN(c2ccc(C(=O)NS(=O)(=O)c3cc(F)c(NC[C@H]4COCCO4)c([N+](=O)[O-])c3)c(Oc3cnc4[nH]ccc4c3)c2)CCN1CC1=C(c2ccc(Cl)cc2)CC(C)(C)C(C)(C)C1 [Example 41, N-((4-((((S)-1,4-dioxan-2-yl)methyl)amino)-3-fluoro-5-nitrophenyl)sulfonyl)-2-((1H-pyrrolo[2,3-b]pyridin-5-yl)oxy)-4-((R)-4-((4′-chloro-4,4,5,5-tetramethyl-3,4,5,6-tetrahydro-[1,1′-biphenyl]-2-yl)methyl)-3-methylpiperazin-1-yl)benzamide] | 8 | > 1000 | 1.28

Second part, the molecule after the results:

IC50 [1] [nM] | IC50 [2] [nM] | IC50 [3] [nM] | Compound
4.2 | > 1000 | 1.6 | C[C@@H]1CN(c2ccc(C(=O)NS(=O)(=O)c3ccc(NC[C@H]4COCCO4)c([N+](=O)[O-])c3)c(Oc3cnc4[nH]ccc4c3)c2)CCN1CC1=C(c2ccc(Cl)cc2)CCC(C)(C)C1 [Example 29, N-((4-((((S)-1,4-dioxan-2-yl)methyl)amino)-3-nitrophenyl)sulfonyl)-2-((1H-pyrrolo[2,3-b]pyridin-5-yl)oxy)-4-((R)-4-((4′-chloro-4,4-dimethyl-3,4,5,6-tetrahydro-[1,1′-biphenyl]-2-yl)methyl)-3-methylpiperazin-1-yl) benzamide]
16 | > 1000 | 3.16 | C[C@@H]1CN(c2ccc(C(=O)NS(=O)(=O)c3cc(F)c(NCC4CCOCC4)c([N+](=O)[O-])c3)c(Oc3cnc4[nH]ccc4c3)c2)CCN1CC1=C(c2ccc(Cl)cc2)CC(C)(C)C2(CC2)C1 [Example 33]
22 | > 1000 | 3.15 | C[C@@H]1CN(c2ccc(C(=O)NS(=O)(=O)c3cc(F)c(NCC4CCOCC4)c([N+](=O)[O-])c3)c(Oc3cnc4[nH]ccc4c3)c2)CCN1CC1=C(c2ccc(Cl)cc2)CCC2(CC2)C1 [Example 37]
14.5 | > 1000 | 2.68 | C[C@@H]1CN(c2ccc(C(=O)NS(=O)(=O)c3ccc(NCC4CCOCC4)c([N+](=O)[O-])c3)c(Oc3cnc4[nH]ccc4c3)c2)CCN1CC1=C(c2ccc(Cl)cc2)CC(C)(C)C(C)(C)C1 [Example 39, (R)-2-((1H-pyrrolo[2,3-b]pyridin-5-yl)oxy)-4-(4-((4′-chloro-4,4,5,5-tetramethyl-3,4,5,6-tetrahydro-[1,1′-biphenyl]-2-yl)methyl)-3-methylpiperazin-1-yl)-N-((3-nitro-4--(((tetrahydro-2H-pyran-4-yl)methyl)amino)phenyl)sulfonyl)benzamide]
15 | > 1000 | 1.77 | C[C@@H]1CN(c2ccc(C(=O)NS(=O)(=O)c3cc(F)c(NCC4CCOCC4)c([N+](=O)[O-])c3)c(Oc3cnc4[nH]ccc4c3)c2)CCN1CC1=C(c2ccc(Cl)cc2)CC(C)(C)C(C)(C)C1 [Example 40]
10 | > 1000 | 1.53 | C[C@@H]1CN(c2ccc(C(=O)NS(=O)(=O)c3ccc(NC[C@H]4COCCO4)c([N+](=O)[O-])c3)c(Oc3cnc4[nH]ccc4c3)c2)CCN1CC1=C(c2ccc(Cl)cc2)CC(C)(C)C(C)(C)C1 [Example 42, N-((4-((((S)-1,4-dioxan-2-yl)methyl)amino)-3-nitrophenyl)sulfonyl)-2-((1H-pyrrolo[2,3-b]pyridin-5-yl)oxy)-4-((R)-4-((4′-chloro-4,4,5,5-tetramethyl-3,4,5,6-tetrahydro-[1,1′-biphenyl]-2-yl)methyl)-3-methylpiperazin-1-yl) benzamide]
161 | > 1000 | 6.33 | C[C@@H]1CN(CC2=C(c3ccc(Cl)cc3)CCC(C)(C)C2)CCN1c1ccc(C(=O)NS(=O)(=O)c2cc(F)c(NCC3CCOCC3)c([N+](=O)[O-])c2)c(Oc2cnc3[nH]ccc3c2)c1 [Example 43, (R)-2-((1H-pyrrolo[2,3-b]pyridin-5-yl)oxy)-4-(4-((4′-chloro-4,4-dimethyl-3,4,5,6-tetrahydro[1,1′-biphenyl]-2-yl)methyl)-2-methylpiperazin-1-yl)-N-((3-fluoro-5-nitro-4--(((tetrahydro-2H-pyran-4-yl)methyl)amino)phenyl)sulfonyl)benzamide]
